Test results published in patent US12098144B2, “Piperazine indazole glucocorticoid receptor antagonists” (Corcept Therapeutics Incorporated, priority 2021, dated 2024).

Each compound was assayed against T1, glucocorticoid receptor (Homo sapiens, UniProt P04150) (assay: Hep G2 TAT Ki: inhibition of dexamethasone-induced TAT in HepG2 cells (96 well)). Conditions: challenge of 100 nM dexamethasone, IC50 converted to Ki by Cheng and Prusoff equation.
T1 construct: endogenous in cells; ATCC cat
T1 sequence (P04150 1-777): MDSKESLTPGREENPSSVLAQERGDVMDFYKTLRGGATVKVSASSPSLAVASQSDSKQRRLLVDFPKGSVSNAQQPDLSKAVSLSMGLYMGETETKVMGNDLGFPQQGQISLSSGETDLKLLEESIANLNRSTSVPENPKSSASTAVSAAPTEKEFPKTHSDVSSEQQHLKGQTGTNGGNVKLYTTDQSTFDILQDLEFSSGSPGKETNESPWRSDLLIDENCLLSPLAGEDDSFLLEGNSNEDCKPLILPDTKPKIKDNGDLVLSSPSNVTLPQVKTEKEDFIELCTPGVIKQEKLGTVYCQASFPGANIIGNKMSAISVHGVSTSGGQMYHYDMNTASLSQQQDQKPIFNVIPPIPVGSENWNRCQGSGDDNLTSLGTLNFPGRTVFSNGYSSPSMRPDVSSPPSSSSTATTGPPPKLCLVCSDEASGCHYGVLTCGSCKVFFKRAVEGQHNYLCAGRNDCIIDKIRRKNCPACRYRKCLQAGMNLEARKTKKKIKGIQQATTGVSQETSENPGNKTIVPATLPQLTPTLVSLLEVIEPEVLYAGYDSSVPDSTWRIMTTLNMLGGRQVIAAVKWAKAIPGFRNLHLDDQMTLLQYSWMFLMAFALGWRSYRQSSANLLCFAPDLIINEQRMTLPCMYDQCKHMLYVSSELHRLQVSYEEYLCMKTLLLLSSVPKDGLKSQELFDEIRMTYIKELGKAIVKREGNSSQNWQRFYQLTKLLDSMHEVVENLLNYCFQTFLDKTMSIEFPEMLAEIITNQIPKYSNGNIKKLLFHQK
Assay type: cell-based
Protocol: Glucocorticoid mediated activation of TAT occurs by transactivation of glucocorticoid response elements in the TAT promoter by glucocorticoid receptor-agonist complex.
HepG2 cells were cultured using MEME media supplemented with 10% (v/v) foetal bovine serum; 2 mM L-glutamine and 1% (v/v) NEAA at 37° C., 5%/95% (v/v) CO2/air.
Compounds were serially half log diluted in 100% (v/v) dimethylsulphoxide from a 10 mM stock.
HepG2 cells were then lysed with 30 μl of cell lysis buffer containing a protease inhibitor cocktail for 15 minutes at 4° C. […] After 2 hours incubation at 37° C. the reaction was terminated by the addition of 15 μl of 10M aqueous potassium hydroxide solution, and the plates incubated for a further 30 minutes at 37° C.
[compound] and fitting the data to a 4 parameter logistic equation.
Compound `CCn1ncc(S(=O)(=O)N2CCN(CC(C)C)C(c3cc4cnn(-c5ccc(F)cc5)c4cc3C)C2)n1` (single isomer, unassigned) [Example 48, 5-(4-((2-ethyl-2H-1,2,3-triazol-4-yl)sulfonyl)-1-isobutylpiperazin-2-yl)-1-(4-fluorophenyl)-6-methyl-1H-indazole] has a Ki of 23 nM.
`CCCS(=O)(=O)N1CCN(CC(C)C)C(c2cc3cnn(-c4ccc(F)cc4)c3cc2C)C1` (single isomer, unassigned) [Example 49, 1-(4-fluorophenyl)-5-(1-isobutyl-4-(propylsulfonyl)piperazin-2-yl)-6-methyl-1H-indazole] showed a Ki of 31 nM.
`Cc1cc2c(cnn2-c2ccc(F)cc2)cc1C1CN(S(=O)(=O)N(C)C)CCN1CC(C)C` (single isomer, unassigned) [Example 50, 3-(1-(4-fluorophenyl)-6-methyl-1H-indazol-5-yl)-4-isobutyl-N,N-dimethylpiperazine-1-sulfonamide] showed a Ki of 64 nM.
`Cc1cc2c(cnn2-c2ccc(F)cc2)cc1C1CN(S(=O)(=O)CC2CC2)CCN1CC(C)C` (single isomer, unassigned) [Example 51, 5-(4-((cyclopropylmethyl)sulfonyl)-1-isobutylpiperazin-2-yl)-1-(4-fluorophenyl)-6-methyl-1H-indazole] was tested, and the Ki was 28 nM.
Work on `Cc1cc2c(cnn2-c2ccc(F)cc2)cc1C1CN(S(=O)(=O)CC(C)C)CCN1CC(C)C` (single isomer, unassigned) [Example 52, 1-(4-fluorophenyl)-5-(1-isobutyl-4-(isobutylsulfonyl)piperazin-2-yl)-6-methyl-1H-indazole] yielded a Ki of 24 nM.
Work on `Cc1cc2c(cnn2-c2ccc(F)cc2)cc1C1CN(S(=O)(=O)N2CCOCC2)CCN1CC(C)C` (single isomer, unassigned) [Example 53, 4-((3-(1-(4-fluorophenyl)-6-methyl-1H-indazol-5-yl)-4-isobutylpiperazin-1-yl)sulfonyl)morpholine] yielded a Ki of 41 nM.
`Cc1cc2c(cnn2-c2ccc(F)cc2)cc1C1CN(S(=O)(=O)c2cnn(C3CCOCC3)c2)CCN1CC(C)C` (single isomer, unassigned) [Example 54, 1-(4-fluorophenyl)-5-(1-isobutyl-4-((1-(tetrahydro-2H-pyran-4-yl)-1H-pyrazol-4-yl)sulfonyl)piperazin-2-yl)-6-methyl-1H-indazole] showed a Ki of 31 nM.
`CCn1cc(S(=O)(=O)N2CCN(CC(C)C)C(c3cc4cnn(-c5ccc(F)cc5)c4cc3C)C2)cn1` (single isomer, unassigned) [Example 55, 5-(4-((1-ethyl-1H-pyrazol-4-yl)sulfonyl)-1-isobutylpiperazin-2-yl)-1-(4-fluorophenyl)-6-methyl-1H-indazole] showed a Ki of 19 nM.
With `Cc1cc2c(cnn2-c2ccc(F)cc2)cc1C1CN(S(=O)(=O)c2conc2C)CCN1CC(C)C` (single isomer, unassigned) [Example 56, 4-((3-(1-(4-fluorophenyl)-6-methyl-1H-indazol-5-yl)-4-isobutylpiperazin-1-yl)sulfonyl)-3-methylisoxazole] the Ki was 65 nM.
Compound `Cc1cc2c(cnn2-c2ccc(F)cc2)cc1C1CN(S(=O)(=O)c2cnn(C)c2C)CCN1CC(C)C` (single isomer, unassigned) [Example 57, 5-(4-((1,5-dimethyl-1H-pyrazol-4-yl)sulfonyl)-1-isobutylpiperazin-2-yl)-1-(4-fluorophenyl)-6-methyl-1H-indazole] has a Ki of 19 nM.
In the case of `Cc1cc2c(cnn2-c2ccc(F)cc2)cc1C1CN(S(=O)(=O)c2cncs2)CCN1CC(C)C` (single isomer, unassigned) [Example 58, 5-((3-(1-(4-fluorophenyl)-6-methyl-1H-indazol-5-yl)-4-isobutylpiperazin-1-yl)sulfonyl)thiazole], the Ki is reported as 15 nM.
`Cc1cc2c(cnn2-c2ccc(F)cc2)cc1C1CN(S(=O)(=O)c2cnn(C(F)F)c2)CCN1CC(C)C` (single isomer, unassigned) [Example 59, 5-(4-((1-(difluoromethyl)-1H-pyrazol-4-yl)sulfonyl)-1-isobutylpiperazin-2-yl)-1-(4-fluorophenyl)-6-methyl-1H-indazole] was tested, and the Ki was 22 nM.
`COCCS(=O)(=O)N1CCN(CC(C)C)C(c2cc3cnn(-c4ccc(F)cc4)c3cc2C)C1` (single isomer, unassigned) [Example 60, 1-(4-fluorophenyl)-5-(1-isobutyl-4-((2-methoxyethyl)sulfonyl)piperazin-2-yl)-6-methyl-1H-indazole] showed a Ki of 28 nM.
Compound `Cc1cc2c(cnn2-c2ccc(F)cc2)cc1C1CN(S(=O)(=O)CC2CCOCC2)CCN1CC(C)C` (single isomer, unassigned) [Example 61, 1-(4-fluorophenyl)-5-(1-isobutyl-4-(((tetrahydro-2H-pyran-4-yl)methyl)sulfonyl)piperazin-2-yl)-6-methyl-1H-indazole] has a Ki of 64 nM.
Work on `Cc1cc2c(cnn2-c2ccc(F)cc2)cc1C1CN(S(=O)(=O)N(C)C2CC2)CCN1CC(C)C` (single isomer, unassigned) [Example 62, N-cyclopropyl-3-(1-(4-fluorophenyl)-6-methyl-1H-indazol-5-yl)-4-isobutyl-N-methylpiperazine-1-sulfonamide] yielded a Ki of 44 nM.
Work on `CCn1cc(S(=O)(=O)N2CCN(CC(C)C)C(c3cc4cnn(-c5ccc(F)cc5)c4cc3C)C2)nn1` (single isomer, unassigned) [Example 63, 5-(4-((1-ethyl-1H-1,2,3-triazol-4-yl)sulfonyl)-1-isobutylpiperazin-2-yl)-1-(4-fluorophenyl)-6-methyl-1H-indazole] yielded a Ki of 20 nM.
For `Cc1cc2c(cnn2-c2ccc(F)cc2)cc1C1CN(S(=O)(=O)c2cnn(C)c2)CCN1CC(C)C` (single isomer, unassigned) [Example 64, 1-(4-fluorophenyl)-5-(1-isobutyl-4-((1-methyl-1H-pyrazol-4-yl)sulfonyl)piperazin-2-yl)-6-methyl-1H-indazole], the Ki was 50 nM.
Compound `Cc1cc2c(cnn2-c2ccc(F)cc2)cc1C1CN(S(=O)(=O)c2cnn(C)n2)CCN1Cc1ccon1` (single isomer, unassigned) [Example 72, 3-((2-(1-(4-fluorophenyl)-6-methyl-1H-indazol-5-yl)-4-((2-methyl-2H-1,2,3-triazol-4-yl)sulfonyl)piperazin-1-yl)methyl)isoxazole] has a Ki of 330 nM.
For `Cc1cc2c(cnn2-c2ccc(F)cc2)cc1C1CN(S(=O)(=O)c2cnn(C)n2)CCN1CC1(F)CC1` (single isomer, unassigned) [Example 73, 5-(1-((1-fluorocyclopropyl)methyl)-4-((2-methyl-2H-1,2,3-triazol-4-yl)sulfonyl)piperazin-2-yl)-1-(4-fluorophenyl)-6-methyl-1H-indazole], the Ki was 170 nM.
`Cc1cc2c(cnn2-c2ccc(F)cc2)cc1C1CN(S(=O)(=O)c2cnn(C)n2)CCN1CC1CCC1` (single isomer, unassigned) [Example 74, 5-(1-(cyclobutylmethyl)-4-((2-methyl-2H-1,2,3-triazol-4-yl)sulfonyl)piperazin-2-yl)-1-(4-fluorophenyl)-6-methyl-1H-indazole] was tested, and the Ki was 160 nM.
Work on `Cc1cc2c(cnn2-c2ccc(F)cc2)cc1C1CN(S(=O)(=O)c2cnn(C)n2)CCN1CC1CC(F)(F)C1` (single isomer, unassigned) [Example 75, 5-(1-((3,3-difluorocyclobutyl)methyl)-4-((2-methyl-2H-1,2,3-triazol-4-yl)sulfonyl)piperazin-2-yl)-1-(4-fluorophenyl)-6-methyl-1H-indazole] yielded a Ki of 140 nM.
`Cc1cc2c(cnn2-c2ccc(F)cc2)cc1C1CN(S(=O)(=O)c2cnn(C)n2)CCN1CC1CC(F)(F)C1` (single isomer, unassigned) [Example 76, 5-(1-((3,3-difluorocyclobutyl)methyl)-4-((2-methyl-2H-1,2,3-triazol-4-yl)sulfonyl)piperazin-2-yl)-1-(4-fluorophenyl)-6-methyl-1H-indazole] showed a Ki of 22 nM.
In the case of `Cc1cc2c(cnn2-c2ccc(F)cc2)cc1C1CN(S(=O)(=O)c2cnn(C)n2)CCN1CC1CCC1` (single isomer, unassigned) [Example 77, 5-(1-(cyclobutylmethyl)-4-((2-methyl-2H-1,2,3-triazol-4-yl)sulfonyl)piperazin-2-yl)-1-(4-fluorophenyl)-6-methyl-1H-indazole], the Ki is reported as 13 nM.
`Cc1cc2c(cnn2-c2ccc(F)cc2)cc1C1CN(S(=O)(=O)c2cnn(C)n2)CCN1CC1CCCC1` (single isomer, unassigned) [Example 78, 5-(1-(cyclopentylmethyl)-4-((2-methyl-2H-1,2,3-triazol-4-yl)sulfonyl)piperazin-2-yl)-1-(4-fluorophenyl)-6-methyl-1H-indazole] gave a Ki of 13 nM.
